Measurements as given in patent US20250073238A1, “METHODS OF TREATING SYSTEMIC LUPUS ERYTHEMATOSUS USING BTK INHIBITORS” (BeiGene Switzerland GmbH, priority 2020, published 2025).

How the values were obtained:
[1] = Plasma drug exposure at steady state in MRL/lpr mice; type: in vivo, mouse; details: 1.5-50 mg/kg BID oral
Experimental: Plasma was collected by centrifugation at 5, 600 rpm for 7 minutes and was kept frozen at −80° C. until analysis. Bioanalysis was conducted at 3D BioOptima Co., Ltd. (Suzhou, China).

SLE-cGVHD mouse model = test: Efficacy in systemic lupus erythematosus like chronic graft-versus-host-disease (SLE-cGVHD) model; type: in vivo
Experimental: Splenocytes from DBA/2 mice were transplanted into 54 B6D2F1 mice intravenously at day −7 and day 0. 48 animals were randomly divided into 4 groups of 12 animals each group according to the inoculation order. Treatment was initiated the next day after randomization until the end of the 26th day. […] Treatments were administered by oral gavage (p.o.) in a volume of 10 ml/kg body weight.
Mice were monitored daily for clinical signs of toxicity for the duration of the study. Body weight for each animal was recorded twice per week. On day 15th of treatment, blood was collected from the orbital venous sinus under isoflurane/oxygen anesthesia and the serum samples were prepared. An anti-ds DNA IgG ELISA kit (Chondrex, Inc., Cat. 3031) was used to quantitate anti-ds DNA IgG levels in sera from individual mice.
On day 8th, b 15th and 22th of treatment, proteinuria was assessed by determination of urine albumin using URIT 1 vp strips (URIT, China), and was scored on a 0-4 scale with scored as follows: 0=trace, 1≥30 mg/dL, 2≥100 mg/dL, 3≥300 mg/dL, and 4≥500 mg/dL.
The difference between the mean values of proteinuria level, spleen-index and anti-ds DNA IgG level in treatment and vehicle group was analyzed for significance using One-way ANOVA (followed by Dunnett's test). P<0.05 was considered statistically significant.

[2] = test system: NZBWF1/J lupus mouse model; test: Efficacy in NZBWF1/J lupus model; type: in vivo; details: for Blood urea nitrogen (BUN) level: day 96, serum
Experimental: […] NZBWF1 female mice at 26 weeks of age were randomized into 7 groups with 10 mice per group, based on proteinuria level, anti-dsDNA IgG level and body weight. […] Treatments were administered by oral gavage (p.o.) in a volume of 10 ml/kg body weight.
Mice were also being monitored daily for clinical signs of toxicity for the duration of the study. Body weight for each animal was recorded twice per week and proteinuria was measured weekly. Proteinuria was assessed using URIT 1 vp strips, and was scored on a 0-4 scale with scored as follows: 0=trace, 1≥30 mg/dL, 2≥100 mg/dL, 3≥300 mg/dL, and 4≥500 mg/dL.
On the day 96th of treatment, blood was collected quickly by the heart punctures under carbon dioxide euthanasia. The 300-500 μL blood was transferred to the coagulation tube, and the upper serum samples were separated by centrifuge at 2,000 g for 10 minutes, and then stored in the refrigerator at −80° C. for later use. 110 μL serum was used for the detection of blood urea nitrogen level, and 25 μL serum was used for measurement of TNFα and IL-10 levels by Luminex.
The kidney was removed and fixed with 10% neutral buffer formalin solution. The tissue was taken from the modified block, dehydrated with alcohol step by step, embedded in paraffin, sectioned by slide slicer (about 3 μm thick), stained with hematoxylin-cosin (HE), and examined by light microscopy for pathological changes of the kidney tissue. Sections were blindly scored as the sum of three systems, including inflammation (0-4), glomerular damage (0-4), and sclerosis (0-4).

[3] = Plasma drug exposure at steady state in SLE-cGVHD mice; type: in vivo, mouse; details: day 26, 10 and 20 mg/kg BID oral
Experimental: Plasma was collected by centrifugation at 5, 600 rpm for 7 minutes. Bioanalysis was conducted at 3D BioOptima Co., Ltd. (Suzhou, China).

[4] = test system: MRL/MpJ-Fas^lpr/J (MRL/lpr) mouse model; test: Efficacy in MRL/MpJ-Fas^lpr/J (MRL/lpr) lupus model; type: in vivo
Experimental: MRL/MpJ-Fas^lpr/J (MRL/lpr) mice purchased from Jackson laboratories were randomized into 6 groups with 11 mice per group, based on proteinuria level, anti-dsDNA IgG and body weight. […] Treatments were administered by oral gavage (p.o.) in a volume of 10 ml/kg body weight.
During the experimental period, the condition and mortality of the mice were recorded every day. Body weight for each animal was recorded twice per week.
Proteinuria was measured by determination of urine albumin weekly using URIT 1 vp strips (URIT, China), and was scored on a 0-4 scale with scored as follows: 0=trace, 1≥30 mg/dLl, 2≥100 mg/dL, 3≥300 mg/dLl, and 4≥500 mg/dL.
At the end of the study, blood was collected from the orbital venous sinus under isoflurane/oxygen anesthesia. The serum samples were prepared and analyzed for BUN level in serum. An anti-dsDNA IgG ELISA kit (Chondrex, Inc., Cat. 3031) was used to quantitate IgG level to anti-dsDNA IgG in sera from individual mice.
Mice were euthanized using carbon dioxide, spleen and body weight were measured at the end of the study. Spleen index (ratio of spleen weight to body weight) was calculated.
The kidneys were collected and preserved in 10% NBF, the tissues were trimmed, dehydrated, embedded in paraffin, sectioned (˜3 μm) and stained with HE. The histopathology exam was performed.
The difference between the mean values of proteinuria level, spleen-index, BUN level, kidney histopathology score and anti-dsDNA IgG level in treatment and vehicle group was analyzed for significance using One-way ANOVA (followed by Dunnett's test). P<0.05 was considered statistically significant.

[5] = Compound 1 10 mg/kg BID p.o., day 96
[6] = Compound 1 3 and 10 mg/kg BID p.o.
[7] = 1.5, 5, 15 and 50 mg/kg BID oral, end of study
[8] = MMF 100 mg/kg QD p.o., compared with the control group

For `C=CC(=O)N1CCC([C@@H]2CCNc3c(C(N)=O)c(-c4ccc(Oc5ccccc5)cc4)nn32)CC1` [Compound 1, (S)-7-(1-acryloylpiperidin-4-yl)-2-(4-phenoxyphenyl)-4,5,6,7-tetra-hydropyrazolo[1,5-a]pyrimidine-3-carboxamide], the “Drug exposure AUC0-8h” value [1] was “increased dose independently”, the “Drug exposure Cmax” value [1] was “increased dose independently” and the “Level of anti-dsDNA IgG in serum” value (SLE-cGVHD mouse model; 10 and 20 mg/kg BID oral, day 15 of treatment, ELISA) was “inhibited”. The Proteinuria level (SLE-cGVHD mouse model; 10 and 20 mg/kg BID oral, day 22 of treatment) was “significantly reduced”, the “Disease (overall)” value (SLE-cGVHD mouse model; SLE-cGvHD mouse model, all results) was “ameliorated disease” and the “Secretion of IL-10 (serum level)” value [2, 5] was “dramatically inhibited”. For the same compound, the “Secretion of TNFα (serum level)” value [2, 5] was “dramatically inhibited”, the Renal histopathology score ([2]; Compound 1 0.1-10 mg/kg BID p.o.) was “inhibited renal histopathology score in a dose-dependent manner” and the Proteinuria ([2]; Compound 1 0.1-10 mg/kg BID p.o., vs. vehicle) was “dose-dependently suppressed”. For the same compound, the Proteinuria ([2]; Compound 1 0.1 and 0.3 mg/kg BID p.o., compared with MMF 100 mg/kg QD) was “less effective than MMF”, the Proteinuria ([2]; Compound 1 1, 3 and 10 mg/kg BID p.o., compared with MMF 100 mg/kg QD) was “no significant difference when compared with MMF” and the Spleen weight [2, 6] was “dramatically inhibited”. For the same compound, the “Blood urea nitrogen (BUN) level” value [2, 6] was “remarkably inhibited”, the “Anti-lupus effect compared with MMF” value ([2]; Compound 1 orally 3 and 10 mg/kg BID) was “stronger anti-lupus effect” and the “Anti-lupus effect (overall)” value ([2]; NZBWF1/J lupus mouse model, all results) was “strong anti-lupus effect”. The “Drug exposure AUC0-8h” value [3] was “increased dose dependently”, the “Drug exposure Cmax” value [3] was “increased dose dependently” and the “Efficacy (dose dependence)” value ([4]; 1.5 mg/kg to 50 mg/kg twice a day) was “dose-dependent efficacy”. For the same compound, the “Protection from lupus nephritis” value ([4]; 1.5, 5, 15 and 50 mg/kg BID oral, 17 weeks) was “significantly protected”, the Proteinuria ([4]; 1.5, 5, 15 and 50 mg/kg BID oral, day 118) was “significantly decreased” and the Kidney histopathological score [4, 7] was “reduced”. The “Serum blood urea nitrogen (BUN) level” value [4, 7] was “significantly decreased”, the “Anti-dsDNA IgG level in serum” value ([4]; 1.5, 5, 15 and 50 mg/kg BID oral, end of study, compared with vehicle) was “inhibited” and the “Anti-lupus effect (overall)” value ([4]; MRL/lpr mouse model, all results) was “strong anti-lupus effect”.

For `COc1c(C)c2c(c(O)c1C/C=C(\C)CCC(=O)OCCN1CCOCC1)C(=O)OC2` [MMF, mycophenolate mofetil, reference compound], the Renal histopathology score ([2]; MMF 100 mg/kg QD p.o.) was “not able to significantly inhibit”, the Spleen mass ([2]; MMF 100 mg/kg QD p.o.) was “not able to significantly inhibit” and the “IL-10 level in serum” value [2, 8] was “lower level of TNFα and IL-10 with no statistical significance”. The “TNFα level in serum” value [2, 8] was “lower level of TNFα and IL-10 with no statistical significance” and the “Blood urea nitrogen (BUN) level” value ([2]; MMF 100 mg/kg QD p.o.) was “remarkably inhibited”.
